Test results taken from patent US20230414622A1, “PHARMACEUTICAL METHOTREXATE COMPOSITION” (Leopold MTX GmbH, priority 2020, published 2023).
Where two headings read alike, the source gives them in different places.

Tests used:
TNF-α = molecular target: T1, TNF-α (Homo sapiens, UniProt P01375); test: Microscale thermophoresis (MST) binding affinity to Cy5-labelled recombinant TNF-α; settings: for Kd: PBS pH 7.5, 25° C., mean of six independent test series
T1 construct: purchased Acrobiosystems, USA
Description: (§1) In addition to thermodynamic stability, the binding affinity of the biopharmaceuticals in compositions according to the present invention was determined and compared with the binding affinity in corresponding reference compositions.
(§2) Binding studies were performed using microscale thermophoresis (MST) with the Monolith NT.115 device (NanoTemper Technologies, Munich, Germany).
(§3) For the MST measurements, 10 microliters each of the biopharmaceutical at a concentration of […] were mixed with 10 microliters each of a serial dilution of methotrexate disodium in PBS buffer pH 7.5 to prepare the compositions according to the invention. The final concentration of MTX in all samples was 55 micromoles per liter, while the concentration of the respective ligand ranged from 1.5 micromoles per liter to 25 millimoles per liter.
(§4) Samples were loaded into coated capillaries (NanoTemper Technologies) according to the manufacturer's instructions and fluorescence was recorded for 20 seconds at 100% laser power and 40% MST power. The temperature of the instrument was set at 25° C. for all measurements. After the recordal of MST time traces, the data were analyzed. The equilibrium dissociation constant (KD) was determined based on the change in normalized fluorescence as a function of the concentration of the corresponding ligand after 14 seconds of thermophoresis using MO affinity analysis software (NanoTemper Technologies).
(§5) The values shown are the arithmetic mean values from six independent test series in each case.

CD80 = test: Microscale thermophoresis (MST) binding affinity to Cy5-labelled recombinant CD80; settings: for Kd: PBS pH 7.5, 25° C., mean of six independent test series
Description: as §1, §2
Recombinant TNF-α, CD20, and CD80 (Acrobiosystems, USA) were labeled for MST measurements using the fluorescent dye Cy5 (Thermo Fisher Scientific, Germany) according to the manufacturer's instructions. The concentration of the recombinant proteins was measured after labeling using a UV-Vis spectrophotometer, and a labeling efficiency of 80 was determined.
as §3, §4, §5

[1] = Thermal unfolding profiles (Tycho NT.6 fluorimeter): temperature stability of the biologic with or without MTX; format: physicochemical
Source text: To prepare the compositions according to the invention, the biologics were combined with methotrexate disodium at concentrations of 25 milligrams per milliliter, 16.6 milligrams per milliliter, 10.0 milligrams per milliliter, 7.14 milligrams per milliliter, and 5.0 milligrams per milliliter, respectively. Phosphate buffered saline (PBS buffer) pH 7.5 was used as the solvent. As reference composition in each case served the biopharmaceutical in equivalent concentration in PBS buffer pH 7.5 without the addition of methotrexate disodium.
In each case, the above-noted concentrations were the final concentration of the biopharmaceutical or the methotrexate in the pharmaceutical composition.
After 20 days of incubation, the compositions were measured using a Tycho NT.6 fluorimeter (NanoTemper Technologies, Munich, Germany) according to the manufacturer's instructions to determine the thermal unfolding profiles of the biologics.
The inflection point of each curve indicates the denaturation temperature of the biopharmaceutical in the composition.

[2] = molecular target: T2, Recombinant CD20 (Acrobiosystems), Cy5-labelled (UniProt P11836 1-297, limits assumed, labelled with fluorescent dye Cy5 (site not stated)); test: microscale thermophoresis, Cy5-labelled CD20, PBS pH 7.5, 25 °C, with methotrexate disodium; mean of six series
T2 construct: Bought recombinant protein; construct not described; also called B-lymphocyte antigen CD20
T2 sequence (looked up): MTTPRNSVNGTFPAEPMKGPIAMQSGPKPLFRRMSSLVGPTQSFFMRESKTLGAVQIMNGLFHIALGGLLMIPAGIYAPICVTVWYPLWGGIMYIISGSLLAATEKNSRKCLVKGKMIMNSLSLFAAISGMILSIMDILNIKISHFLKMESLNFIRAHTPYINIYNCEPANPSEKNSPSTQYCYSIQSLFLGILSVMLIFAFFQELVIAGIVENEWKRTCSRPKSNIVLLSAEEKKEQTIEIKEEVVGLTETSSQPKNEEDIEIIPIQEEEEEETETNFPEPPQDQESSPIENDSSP

[3] = molecular target: T2, Recombinant CD20 (Acrobiosystems), …; test: microscale thermophoresis, Cy5-labelled CD20, PBS pH 7.5, 25 °C, reference without MTX; mean of six series
[4] = molecular target: T2, Recombinant CD20 (Acrobiosystems), …; test: microscale thermophoresis; KD with MTX against the reference without MTX
[5] = MTX 55 micromoles per liter, read-out: KD with MTX
[6] = read-out: KD without MTX (reference)

T1 sequence (P01375 77-233 limits assumed): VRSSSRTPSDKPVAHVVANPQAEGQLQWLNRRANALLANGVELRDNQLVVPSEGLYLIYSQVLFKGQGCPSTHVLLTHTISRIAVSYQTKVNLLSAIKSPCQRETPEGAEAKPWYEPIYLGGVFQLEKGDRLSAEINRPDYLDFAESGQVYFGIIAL
Chain of CD80 (P33681 35-288): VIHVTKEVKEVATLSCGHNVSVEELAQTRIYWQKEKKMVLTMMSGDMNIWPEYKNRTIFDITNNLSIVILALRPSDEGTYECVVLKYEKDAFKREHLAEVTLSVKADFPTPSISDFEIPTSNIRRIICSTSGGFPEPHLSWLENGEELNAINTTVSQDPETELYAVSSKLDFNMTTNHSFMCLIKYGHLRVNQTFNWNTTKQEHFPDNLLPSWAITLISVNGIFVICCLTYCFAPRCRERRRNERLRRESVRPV

Q: Which results are given for Adalimumab?
A: Kd (TNF-α; [5]): 0.14 nM; Kd (TNF-α; [6]): 0.147 nM; binding affinity / binding strength in composition with MTX compared to control without MTX (TNF-α; in words, the b130 statement covers all tested ligands (TNF-α, CD20, CD80)): higher binding affinity; Relative increase in binding strength (TNF-α; with MTX vs without MTX): 5%

Q: Which Kd (CD80; [5]) does the source give for “Rituximab: biologic that specifically binds B-lymphocyte antigen CD20 (trade names: MabThera, Rituxan)” here?
A: 6.8 nM

Q: And the Kd (CD80; [6])?
A: 11.3 nM

Q: And the “Relative increase in binding strength” value (CD80; with MTX vs without MTX)?
A: 66%

Q: What does the source list for Etanercept?
A: temperature stability in composition with MTX ([1]; MTX 5 milligrams per milliliter, PBS pH 7.5, 20 days of incubation): 74.3 °C; denaturation temperature / temperature stability in reference composition without MTX ([1]; PBS buffer pH 7.5, without MTX, after 20 days of incubation): 73.9 °C; Kd (TNF-α; [5]): 0.005 nM; Kd (TNF-α; [6]): 0.0116 nM

B1: Rituximab (MabThera) (antibody, V domains shown)
VH: QVQLQQPGAELVKPGASVKMSCKASGYTFTSYNMHWVKQTPGRGLEWIGAIYPGNGDTSYNQKFKGKATLTADKSSSTAYMQLSSLTSEDSAVYYCARSTYYGGDWYFNVWGAGTTVTVSA
VL: QIVLSQSPAILSASPGEKVTMTCRASSSVSYIHWFQQKPGSSPKPWIYATSNLASGVPVRFSGSGSGTSYSLTISRVEAEDAATYYCQQWTSNPPTFGGGTKLEIK
Q: For B1, which Kd [2] is on record?
A: 6.8 nM

Q: And the Kd [3]?
A: 11.3 nM

Q: What about the “Relative increase in binding strength” value [4] of the same molecule?
A: 66%
